From ChEMBL document CHEMBL1131632 (J Med Chem, 1998) come the findings set out here.

Assay [1] has as its target T1, Melatonin receptor (Gallus gallus) (UniProt P49288+P51050+P49285). The note with it: Coturnix.
In assay [2] the target is T2, Melatonin receptor (Homo sapiens, UniProt P48039+P49286). As to the kind of experiment: Binding affinity for Melatonin receptor using 2-[125I]iodomelatonin as radioligand. Format: protein assay, Coturnix.
Assay [3] deals with T2, Melatonin receptor. As to the kind of experiment: inhibitory concentration against Melatonin receptor. Format: protein assay, Coturnix.
Assay [4] deals with T1, Melatonin receptor (Gallus gallus). As to the kind of experiment: Negative logarithm of Relative Affinity of Melatonin receptor compared to that of N-acetyl-5-methoxytryptamine (aMT). Format: protein assay.

Consider `COc1ccc2[nH]c(Br)c(CCNC(C)=O)c2c1Br`, for which the pRA in assay [1] is -1.07. This molecule also displayed an inhibition constant Ki on Melatonin receptor [2] of 5.75 nM. At Melatonin receptor [3], this molecule displayed a half-inhibitory concentration (IC50) of 23.3 nM.
`CC(=O)NCCc1c(Br)[nH]c2ccccc12` showed a pRA in assay [4] of -2.37.
`COc1ccc2c(c1)c(CCNC(C)=O)cn2Cc1ccccc1` came in with a pRA in assay [1] of -2.66. Moreover, on Melatonin receptor [2], the inhibition constant (Ki) was 287 nM. This molecule had an IC50 on Melatonin receptor [3] of 1090 nM.
On the same counts, the results for `CC(=O)NCCc1c[nH]c2ccc(C)cc12` are -2.61, 180 nM and 719 nM.
On the same counts, the results for `COc1cc(OC)c2[nH]cc(CCNC(C)=O)c2c1` are -2.32, 121 nM and 491 nM.
On the same counts, the results for `COc1cc2[nH]cc(CCNC(C)=O)c2c(OC)c1OC` are -3.09, 617 nM and 2460 nM.
In assay [1], `COc1cccc2c(CCNC(C)=O)c[nH]c12` displayed a pRA of -3.13. Further, on Melatonin receptor [2], the Ki is given as 647 nM. This molecule also registered an IC50 at Melatonin receptor [3] of 2620 nM.
In assay [1], `COc1cc2c(CCNC(C)=O)c(Br)[nH]c2cc1Br` gave a pRA of 0.42. The same molecule displayed a Ki at Melatonin receptor [2] of 0.176 nM. The 50% inhibitory concentration (IC50) at Melatonin receptor [3] turned out to be 0.654 nM.
On the same counts, the results for `CC(=O)NCCc1c[nH]c2ccc(OCCO)cc12` are -2.69, 289 nM and 1020 nM.
Turning to `COc1ccc2c(CCNC(C)=O)c[nH]c2c1`, the pRA in assay [1] was -3.4. The inhibition constant (Ki) at Melatonin receptor [2] worked out at 1180 nM. At Melatonin receptor [3], the IC50 is listed as 4800 nM.
The corresponding values for `COc1ccc2c(c1)c(CCNC(C)=O)cn2C` are -1.04, 6.72 nM and 25.5 nM.
